# In US7488754B2, “Method for the treatment of polycystic kidney disease” (Wyeth, priority 2002, dated 2009):
# Marks after values point to notes of the source that are not given here.
# Assays:
# MMP-9 = MMP-9 (Homo sapiens, UniProt P14780); experiment: MMP activity (IC 50), MMP-9; assay type: biochemical
# cystic bpk mice [1] = experiment: Treatment of cystic bpk mice (bpk model of ARPKD); assay type: in vivo
# Source text: This model arose from a spontaneous mutation in a colony of BALB/C mice. Affected animals have many similarities to the human disease including collecting tubule (CT) cysts and biliary ectasia and fibrosis. The kidney disease has a consistent and severe phenotype. Mice homozygous for the bpk mutation have microscopic evidence of cyst formation at birth. Proximal tubule (PT) cysts are present at birth, which are gradually replaced by CT cysts as the disease progresses. Cyst expansion and kidney fibrosis result in death due to renal failure at 24-28 days. Heterozygotes show no phenotypic abnormalities and are identified by their ability to breed affected offspring. Unaffected (noncystic) littermates of cystic bpk mice are either wild-type or heterozygous at the bpk locus.
# (§1) Cystic bpk mice and phenotypically normal littermates were injected with a dose of 100 mg/kg/dose of 1-acetyl-4-(4-but-2-ynyloxy-benzenesulfonyl)-2,3,4,5-tetrahydro-1 h-[1,4]benzodiazepine-3-carboxylic acid hydroxyamide given intraperitoneally once daily, in a vehicle containing 0.5% methocellulose (Fluka Biochemica, Ronkonkoma, N.Y.) and 2% Tween 80 (J T Baker, Phillipsburg, N.J.), beginning at postnatal day 7. Age-matched untreated cystic bpk mice and their noncystic littermates served as controls. At day 21, mice were sacrificed. Blood was obtained by orbital puncture prior to sacrifice. Kidney weight and body weight for treated and untreated cystic and noncystic mice were measured at sacrifice. Blood urea nitrogen (BUN) was assessed using a calorimetric assay. Serum creatinine was assessed using standard techniques in the hospital laboratory. Differences in clinical and laboratory parameters between treated and untreated cystic and noncystic mice were analyzed by two-tailed Student's t-test.
# Kidneys were fixed in 4% paraformaldehyde and embedded in plastic. Segment-specific localization of cysts was assessed using lectins specific to proximal tubule (Lotus tetragonolobus, LTA), and collecting tubule (Dolichos biflorus agglutinin, DBA). Serial LTA and DBA stained sections were examined by light microscopy and assessed for severity of cystic dilatations in PTs and CTs, expressed on a scale of 0 to 5 using a modified cystic index: • 0=No cysts • 1=≦0.11 mm • 2=0.12-0.19 mm • 3=0.20-0.27 mm • 4=0.28-0.35 mm • 5=≧0.36 mm The total number of CT (DBA+/LTA−) cysts and PT (LTA+/DBA−) cysts within a section were counted and expressed as a ratio.
# Mice were treated from day 7 of life until day 21, then sacrificed. […] The results are listed below in Tables 1, 2, and 3.
# noncystic littermates = experiment: Treatment of noncystic (phenotypically normal) littermates of bpk mice; assay type: in vivo; settings: P-21 noncystic mice
# Experimental: as §1
# MMP-13 = MMP-13 (Homo sapiens, UniProt P45452); experiment: MMP activity (IC 50), MMP-13; assay type: biochemical
# TACE = TACE (Homo sapiens, UniProt P78536); experiment: TACE activity (IC 50); assay type: biochemical
# MMP-1 = biological target: T1, MMP-1 (Homo sapiens, UniProt P03956); experiment: MMP activity (IC 50), MMP-1; assay type: biochemical
# T1 sequence (P03956 100-469): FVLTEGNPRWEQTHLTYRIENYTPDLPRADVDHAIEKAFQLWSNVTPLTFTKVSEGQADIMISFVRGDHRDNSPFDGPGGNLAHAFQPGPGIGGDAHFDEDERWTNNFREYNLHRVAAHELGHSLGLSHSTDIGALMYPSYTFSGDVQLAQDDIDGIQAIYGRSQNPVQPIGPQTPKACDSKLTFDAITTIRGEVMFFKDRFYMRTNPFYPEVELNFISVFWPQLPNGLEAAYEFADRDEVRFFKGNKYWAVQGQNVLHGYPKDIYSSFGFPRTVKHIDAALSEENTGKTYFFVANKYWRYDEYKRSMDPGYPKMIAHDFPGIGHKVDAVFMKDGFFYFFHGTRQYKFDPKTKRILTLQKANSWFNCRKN
# cystic bpk mice [2] = experiment: Treatment of cystic bpk mice (bpk model of ARPKD); assay type: in vivo; settings: B 50 mg/kg/day once daily IP day 7 to 21
# [3] = P-21 cystic bpk mice, 100 mg/kg/dose intraperitoneally once daily from postnatal day 7, sacrifice day 21
# [4] = 100 mg/kg/dose intraperitoneally once daily from postnatal day 7, sacrifice day 21
# Chain of TACE (P78536 215-824): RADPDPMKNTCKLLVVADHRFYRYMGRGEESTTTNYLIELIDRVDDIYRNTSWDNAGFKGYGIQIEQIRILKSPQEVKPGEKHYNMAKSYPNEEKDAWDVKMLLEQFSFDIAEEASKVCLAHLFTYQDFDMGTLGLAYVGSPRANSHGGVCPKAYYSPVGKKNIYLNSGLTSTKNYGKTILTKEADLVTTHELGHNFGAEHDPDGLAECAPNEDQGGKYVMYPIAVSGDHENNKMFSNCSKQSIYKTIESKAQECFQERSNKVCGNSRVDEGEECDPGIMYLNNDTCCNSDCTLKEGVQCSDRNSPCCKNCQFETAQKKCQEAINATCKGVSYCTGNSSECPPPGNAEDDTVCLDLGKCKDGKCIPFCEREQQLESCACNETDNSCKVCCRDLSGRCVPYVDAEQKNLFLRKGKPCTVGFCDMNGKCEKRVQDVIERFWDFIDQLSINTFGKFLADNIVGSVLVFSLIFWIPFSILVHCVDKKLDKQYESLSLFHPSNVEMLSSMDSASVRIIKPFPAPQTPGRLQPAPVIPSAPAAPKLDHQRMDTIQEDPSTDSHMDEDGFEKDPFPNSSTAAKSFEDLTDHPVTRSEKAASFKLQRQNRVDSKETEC
# Chain of MMP-9 (P14780 94-707): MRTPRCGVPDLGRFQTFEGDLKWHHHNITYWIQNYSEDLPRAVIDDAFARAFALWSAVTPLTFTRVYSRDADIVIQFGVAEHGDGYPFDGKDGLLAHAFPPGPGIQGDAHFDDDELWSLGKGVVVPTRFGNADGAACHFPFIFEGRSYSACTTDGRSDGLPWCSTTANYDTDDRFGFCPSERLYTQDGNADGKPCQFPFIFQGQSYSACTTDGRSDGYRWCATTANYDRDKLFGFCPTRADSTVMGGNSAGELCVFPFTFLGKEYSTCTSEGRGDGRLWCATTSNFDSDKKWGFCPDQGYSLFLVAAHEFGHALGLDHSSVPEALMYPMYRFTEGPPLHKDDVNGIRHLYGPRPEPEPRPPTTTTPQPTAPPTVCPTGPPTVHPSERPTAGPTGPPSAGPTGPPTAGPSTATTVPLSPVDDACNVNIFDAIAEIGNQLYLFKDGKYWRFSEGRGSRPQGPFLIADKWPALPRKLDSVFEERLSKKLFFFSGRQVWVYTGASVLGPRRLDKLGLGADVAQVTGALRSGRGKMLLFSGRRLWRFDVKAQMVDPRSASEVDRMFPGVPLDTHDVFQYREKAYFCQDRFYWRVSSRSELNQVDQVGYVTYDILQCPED
compound,measurement,setting,value
"CC#CCOc1ccc(S(=O)(=O)N2Cc3ccccc3N(C(C)=O)CC2C(=O)NO)cc1 (stereo not drawn) [A, 1-Acetyl-4-(4-But-2-ynyloxy-Benzenesulfonyl)-2,3,4,5-Tetrahydro-1H-[1,4]Benzodiazepine-3-Carboxylic Acid Hydroxyamide]",IC50,MMP-9,12 nM
same,BUN,"cystic bpk mice [1]; P-21 cystic bpk mice, 100 mg/kg/dose intraperitoneally once daily from postnatal day 7, blood at day 21",33 +/− 4^b** mg/dl
same,Body Weight,cystic bpk mice [1]; [3],8.2 +/− 1.3 grams
same,Kidney Weight,cystic bpk mice [1]; [3],0.93 +/− 0.2** grams
same,Kidney Weight to Body Weight,cystic bpk mice [1]; [3],11.2 +/− 1.3** percent
same,CT Cystic Index (graded 1–5),"cystic bpk mice [1]; collecting tubule cysts, DBA stained kidney sections, cystic mice, 100 mg/kg/dose IP once daily day 7 to 21",3.2 +/− 0.4**
same,CT Cyst Size Range,"cystic bpk mice [1]; collecting tubule cysts, cystic mice, 100 mg/kg/dose IP once daily day 7 to 21",0.012–0.29 mm
same,Cystic Kidney Weight to Body Weight,"cystic bpk mice [1]; cystic bpk mice, A 100 mg/kg/dose IP once daily day 7 to 21",11.2 +/− 1.3%
same,PT Cystic Index (graded 1–5),"cystic bpk mice [1]; proximal tubule cysts, LTA stained kidney sections, cystic mice, 100 mg/kg/dose IP once daily day 7 to 21",1.8 +/− 0.4
same,PT Cyst Size Range,"cystic bpk mice [1]; proximal tubule cysts, cystic mice, 100 mg/kg/dose IP once daily day 7 to 21",0.012–0.17 mm
same,Creatinine,"cystic bpk mice [1]; serum, P-21 cystic bpk mice, 100 mg/kg/dose intraperitoneally once daily from postnatal day 7, blood at day 21",0.18 +/− 0.05^b mg/dl
same,Cystic CT/PT Ratio,"cystic bpk mice [1]; total number of CT cysts to PT cysts within a section, cystic mice, 100 mg/kg/dose IP once daily day 7 to 21",1.2**
same,BUN,"noncystic littermates; 100 mg/kg/dose intraperitoneally once daily from postnatal day 7, blood at day 21",17 +/− 4^d mg/dl
same,Body Weight,noncystic littermates; [4],8.5 +/− 1.0 grams
same,Kidney Weight,noncystic littermates; [4],0.13 +/− 0.01 grams
same,Kidney Weight to Body Weight,noncystic littermates; [4],1.5 +/− 0.1%
same,Creatinine,"noncystic littermates; serum, 100 mg/kg/dose intraperitoneally once daily from postnatal day 7, blood at day 21",0.15 +/− 0.05^e mg/dl
same,IC50,MMP-13,3 nM
same,IC50,TACE,8.4 nM
same,IC50,MMP-1,6.6 nM
"O=C(NO)C1(S(=O)(=O)c2ccc(Oc3ccc(Cl)cc3)cc2)CCN(Cc2ccccc2)CC1 [B, 1-Benzyl-4-[4-(4-chloro-phenoxy)-benzenesulfonyl]-piperidine-4-carboxylic acid hydroxamide]",Cystic Kidney Weight to Body Weight,cystic bpk mice [2],15.3 +/− 1.7%
